The target in one assay is T1, wild type RsTAL (Cereibacter sphaeroides, UniProt Q3IWB0).
T1 construct: only residues 1 to 7 and the C-terminal residue 523 of each of the eight RsTAL monomers are poorly ordered; His8 (octahistidine), thrombin-cleavable (N, cleaved yes); made in house; host or cells: E. coli BL21(DE3)
T1 sequence (Q3IWB0 1-523): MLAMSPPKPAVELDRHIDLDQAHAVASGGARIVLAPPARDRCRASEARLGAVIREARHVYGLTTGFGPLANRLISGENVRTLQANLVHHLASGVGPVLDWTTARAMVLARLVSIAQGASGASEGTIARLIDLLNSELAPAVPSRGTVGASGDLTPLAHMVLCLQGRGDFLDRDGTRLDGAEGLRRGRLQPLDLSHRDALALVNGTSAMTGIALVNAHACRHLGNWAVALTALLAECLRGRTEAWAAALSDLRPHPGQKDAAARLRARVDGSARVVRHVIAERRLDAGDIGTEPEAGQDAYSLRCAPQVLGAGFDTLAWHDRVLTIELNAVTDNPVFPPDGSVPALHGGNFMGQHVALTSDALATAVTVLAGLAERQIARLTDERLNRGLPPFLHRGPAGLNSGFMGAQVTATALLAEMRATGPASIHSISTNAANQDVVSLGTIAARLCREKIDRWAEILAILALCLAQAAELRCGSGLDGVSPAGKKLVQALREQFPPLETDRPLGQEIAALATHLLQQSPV
Put plainly: Inhibition of enzyme activity by AIP, wild type RsTAL. The class given is biochemical, Rhodobacter sphaeroides. How it is done: (§1) The inhibition of enzyme activity by AIP was measured with a similar assay system, except that the enzyme was pre-incubated for 7 min in the presence of fixed concentrations of AIP. Inhibition of PAL activity of wild type RsTAL was measured with 15 μg protein, six AIP concentrations between 0 and 20 μM, and initial L-Phe concentrations between 9.6 and 25.6 mM. Inhibition of PAL activity of the H89F mutant was measured with 10 μg protein, five AIP concentrations between 0 and 5 μM, with initial L-Phe concentrations between 0.4 and 1.6 mM. Duplicate sets of enzyme assays were performed and a Dixon plot was used for the estimation of the AIP inhibition constant, Ki. AIP was a gift from Dr. Jerzy Zon, Wroclaw University, Poland.

Another assay deals with PcPAL (Petroselinum crispum, UniProt P24481). Conditions: substrate L-Phe, read-out: AIP Ki; cited from earlier work.
The target in the next assay is T2, H89F RsTAL (Cereibacter sphaeroides, UniProt Q3IWB0, H89F).
T2 construct: mutant proteins were expressed and purified as described for wild type RsTAL; His8 (octahistidine), thrombin-cleavable (N, cleaved yes); made in house; host or cells: E. coli BL21(DE3)
T2 sequence (Q3IWB0 1-523 H89F): T1 sequence (Q3IWB0 1-523) with H89F
Briefly: Inhibition of PAL activity by AIP, H89F RsTAL. It is filed as biochemical, Rhodobacter sphaeroides. How it is done: as §1

The target of assay [1] is T3, Rhodobacter sphaeroides tyrosine ammonia lyase (RsTAL) variant H89F (His89Phe) (Cereibacter sphaeroides, UniProt Q3IWB0, H89F).
T3 sequence (Q3IWB0 1-523 H89F): T1 sequence (Q3IWB0 1-523) with H89F
Briefly: Inhibition of PAL activity of H89F RsTAL by AIP. It is filed as biochemical. Details: mutant proteins were expressed and purified as described for wild type RsTAL; octahistidine (His8), thrombin-cleavable (N, cleaved yes); made in house; host or cells: E. coli BL21(DE3). How it is done: as §1

The target of the next assay is T4, RsTAL (Cereibacter sphaeroides, UniProt Q3IWB0).
T4 construct: His8 (octahistidine), thrombin-cleavable (N, cleaved yes); made in house; host or cells: E. coli BL21(DE3)
T4 sequence (Q3IWB0 1-523): T1 sequence (Q3IWB0 1-523)
Put plainly: Crystal soaking experiments of RsTAL with ligands. To be noted: wild type RsTAL crystals soaked with ligand. It is filed as binding, Rhodobacter sphaeroides. How it is done:
Monoclinic crystals of RsTAL (space group […]) were grown from a 1:1 mixture of protein solution (20 mg/ml in 12.5 mM Tris-HCl, pH 7.5, 50 mM NaCl) and a reservoir solution (0.1 M MOPSO—Na^+, pH 7.0, 7% (w/v) polyethylene glycol 8000, 0.3 M ammonium acetate, 2 mM dithiothreitol, 35 mM cyclohexylbutanoyl-N-hydroxyethylglucamide) using vapor diffusion against reservoir solutions at 4° C. Crystal growth typically occurred over a period of one to three weeks and was expedited through microseeding. […] Crystals of RsTAL in complex with small molecule ligands were produced by soaking crystals for 24-48 hrs in reservoir solutions supplemented with 10-20 mM coumaric acid, caffeic acid, cinnamic acid or AIP.

The target of the next assay is SmPAL. To be noted: substrate L-Phe, read-out: AIP Ki; cited from earlier work.

Where a chain is given by its changes, count along the chain named.

Turning to `NC1(P(=O)(O)O)Cc2ccccc2C1` [AIP, 2-aminoindan-2-phosphonate], the “inhibition of RsTAL activity by AIP (in words)” value at wild type RsTAL (wild type RsTAL) was “weak inhibition”. For the same molecule, the “effect of AIP on activity with L-Tyr (in words)” value at wild type RsTAL (wild type RsTAL, substrate L-Tyr) is reported as “unaffected”. For the same molecule, the Ki on wild type RsTAL (wt RsTAL, substrate L-Phe, Dixon plot) is 16300 nM; on PcPAL, 25 nM; on H89F RsTAL (H89F RsTAL, substrate L-Phe, Dixon plot), 600 nM; in assay [1], 600 nM; on SmPAL it was 1810 nM. In addition, the “Ki lower than for wild type RsTAL” value on H89F RsTAL (H89F mutant with L-Phe versus wild type RsTAL) was 27 fold. Also, at RsTAL, the “binding observed in RsTAL crystals (in words)” value is reported as “no significant binding”.

These data come from patent publication US20090011400A1, “Substrate switched ammonia lyases and mutases” (The Salk Institute for Biological Studies and The Regents …, priority 2006, published 2009).
